Source: ChEMBL document CHEMBL4616632, “Discovery of Cyclic Boronic Acid QPX7728, an Ultrabroad-Spectrum Inhibitor of Serine and Metallo-β-lactamases” (J Med Chem, 2020)

What was measured:
Klebsiella pneumoniae [1] = experiment: Inhibition of Klebsiella pneumoniae KP1009 CTX-M-15 assessed as minimum concentration of compound required to reduce the MIC of aztreonam to 4 ug/ml
Escherichia coli [2] = experiment: Inhibition of Escherichia coli KP308 SHV-5 assessed as minimum concentration of compound required to reduce the MIC of aztreonam to 4 ug/ml
Escherichia coli [3] = experiment: Inhibition of Escherichia coli EC302 TEM-10 assessed as minimum concentration of compound needed to reduce the MIC of aztreonam to 4 ug/ml
[4] = target: Beta-lactamase (Klebsiella pneumoniae) (UniProt Q93LQ9); experiment: Inhibition of Klebsiella pneumoniae KP1004 KPC-2 assessed as minimum concentration of compound needed to reduce the MIC of aztreonam to 4 ug/ml
Enterobacter cloacae = experiment: Inhibition of Enterobacter cloacae ECL1002 AmpC assessed as minimum concentration of compound needed to reduce the MIC of aztreonam to 4 ug/ml
Klebsiella pneumoniae [5] = experiment: Inhibition of Klebsiella pneumoniae KP1081 NDM-1 assessed as minimum concentration of compound required to reduce the MIC of biapenem to 1 ug/ml
Klebsiella pneumoniae [6] = experiment: Inhibition of Klebsiella pneumoniae KP1054 VIM-1 assessed as minimum concentration of compound required to reduce the MIC of biapenem to 1 ug/ml
Pseudomonas aeruginosa = experiment: Inhibition of Pseudomonas aeruginosa PAM 2035 AmpC assessed as minimum concentration of compound needed to reduce the MIC of aztreonam to 4 ug/ml
Klebsiella pneumoniae [7] = experiment: Inhibition of Klebsiella pneumoniae KP1160 IMP-26 assessed as minimum concentration of compound needed to reduce the MIC of meropenem to 1 ug/ml
Escherichia coli [8] = experiment: Inhibition of Escherichia coli ECM6625 SHV-5 assessed as minimum concentration of compound needed to reduce the MIC of aztreonam to 4 ug/ml
Escherichia coli [9] = experiment: Inhibition of Escherichia coli ECM6619 TEM-10 assessed as minimum concentration of compound needed to reduce the MIC of aztreonam to 4 ug/ml
Acinetobacter baumannii = experiment: Inhibition of Acinetobacter baumannii AB1053 OXA-72 assessed as minimum concentration of compound needed to reduce the MIC of meropenem to 8 ug/ml
[10] = target: Beta-lactamase OXA-23 (Acinetobacter baumannii) (UniProt Q9L4P2); experiment: Inhibition of Acinetobacter baumannii AB1054 OXA-23 assessed as minimum concentration of compound needed to reduce the MIC of meropenem to 8 ug/ml
[11] = Protein binding in human plasma; assay type: ADME, cell-free; conditions: read-out: PPB (converted)
[12] = target: Class A carbapenemase KPC-2 (Escherichia coli, UniProt A8DS27); experiment: Inhibition of recombinant Escherichia coli KPC-2 using nitrocefin as substrate preincubated for 10 mins followed by substrate addition and measured every 10 secs for 10 mins by spectrophotometric analysis
[13] = Inhibition of recombinant Escherichia coli OXA-48 using nitrocefin as substrate preincubated for 10 mins followed by substrate addition and measured every 10 secs for 10 mins by spectrophotometric analysis
[14] = Inhibition of recombinant Escherichia coli NDM-1 using imipenem as substrate preincubated for 10 mins followed by substrate addition and measured every 30 secs for 30 mins by spectrophotometric analysis
[15] = Inhibition of recombinant Escherichia coli CTX-M-14 using nitrocefin as substrate preincubated for 10 mins followed by substrate addition measured every 10 secs for 10 mins by spectrophotometrically analysis
[16] = Inhibition of recombinant Escherichia coli SHV-12 using nitrocefin as substrate preincubated for 10 mins followed by substrate addition measured every 10 secs for 10 mins by spectrophotometrically analysis
[17] = Inhibition of recombinant Escherichia coli AmpC using nitrocefin as substrate preincubated for 10 mins followed by substrate addition measured every 10 secs for 10 mins by spectrophotometrically analysis
[18] = Inhibition of […] OXA-48 using nitrocefin as substrate preincubated for 10 mins followed by substrate addition measured every 10 secs for 10 mins by spectrophotometrically analysis
BlaVIM-1 = BlaVIM-1 (Escherichia coli, UniProt Q8GDC1); experiment: Inhibition of recombinant Escherichia coli VIM-1 using nitrocefin as substrate preincubated for 10 mins followed by substrate addition measured every 10 secs for 10 mins by spectrophotometrically analysis
[19] = Inhibition of recombinant Escherichia coli IMP-1 using imipenem as substrate preincubated for 10 mins followed by substrate addition measured every 30 secs for 30 mins by spectrophotometrically analysis
[20] = target: Beta-lactamase (Klebsiella pneumoniae) (UniProt Q93LQ9); experiment: Inhibition of Klebsiella pneumoniae KP1004 KPC-2 assessed as minimum concentration of compound needed to reduce the MIC of biapenem to 1 ug/ml
Klebsiella pneumoniae [21] = experiment: Inhibition of Klebsiella pneumoniae KP1086 OXA-48 assessed as minimum concentration of compound needed to reduce the MIC of biapenem to 1 ug/ml
Klebsiella pneumoniae [22] = experiment: Inhibition of Klebsiella pneumoniae KP1081 NDM-1 assessed as minimum concentration of compound needed to reduce the MIC of biapenem to 1 ug/ml
[23] = Oral bioavailability in rat; assay type: ADME, organism-based; conditions: in vivo
[24] = Drug metabolism in dog assessed as oxidative-deboronation by measuring 2-hydroxy-3-(2-hydroxyethyl)-6-methoxy-benzoic acid formation; assay type: ADME, Canis lupus familiaris
[25] = Drug metabolism in monkey assessed as oxidative-deboronation by measuring 2-hydroxy-3-(2-hydroxyethyl)-6-methoxy-benzoic acid formation; assay type: ADME, Macaca mulatta; conditions: rhesus monkey
[26] = Drug level in dog treated with disodium salt of 8-carboxylato-2,2-dihydroxy-7-methoxy-3,4-dihydro-2Hbenzo[e][1,2]oxaborinin-2-uide assessed as compound formation; assay type: ADME, Canis lupus familiaris; conditions: in vivo
[27] = Drug level in monkey treated with disodium salt of 8-carboxylato-2,2-dihydroxy-7-methoxy-3,4-dihydro-2Hbenzo[e][1,2]oxaborinin-2-uide assessed as compound formation; assay type: ADME, Macaca mulatta; conditions: rhesus monkey, in vivo
Beta-lactamase OXA-23 = Beta-lactamase OXA-23 (Acinetobacter baumannii, UniProt Q9L4P2); experiment: Inhibition of Acinetobacter baumannii OXA-23 using nitrocefin as substrate preincubated for 10 mins followed by substrate addition measured every 10 secs for 10 mins by spectrophotometrically analysis
Sequence of Beta-lactamase OXA-23 (Q9L4P2 whole entry): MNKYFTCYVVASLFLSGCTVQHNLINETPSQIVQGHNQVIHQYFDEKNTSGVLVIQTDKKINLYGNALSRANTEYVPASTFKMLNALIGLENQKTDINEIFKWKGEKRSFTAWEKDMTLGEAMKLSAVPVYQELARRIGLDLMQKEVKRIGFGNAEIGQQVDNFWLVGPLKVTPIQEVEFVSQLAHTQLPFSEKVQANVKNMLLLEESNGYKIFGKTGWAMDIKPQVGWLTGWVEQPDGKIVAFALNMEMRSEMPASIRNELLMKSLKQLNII

Sequence of Beta-lactamase (Klebsiella pneumoniae) (Q93LQ9 as listed by the source): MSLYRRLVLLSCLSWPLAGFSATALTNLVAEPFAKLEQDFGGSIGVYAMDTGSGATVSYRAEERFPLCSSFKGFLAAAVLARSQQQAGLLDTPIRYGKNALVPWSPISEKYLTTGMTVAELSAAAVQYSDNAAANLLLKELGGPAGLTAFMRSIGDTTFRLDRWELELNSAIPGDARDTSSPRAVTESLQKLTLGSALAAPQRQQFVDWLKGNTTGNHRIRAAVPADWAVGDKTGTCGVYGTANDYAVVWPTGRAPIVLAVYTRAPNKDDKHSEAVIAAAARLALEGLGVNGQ
Sequence of Beta-lactamase OXA-23 (Acinetobacter baumannii) (Q9L4P2 whole entry): as the sequence (Q9L4P2 whole entry) above
Sequence of Class A carbapenemase KPC-2 (A8DS27 whole entry): as the sequence (Q93LQ9 as listed by the source) above

Row | SMILES | MEC (Klebsiella pneumoniae [1]) | MEC [4] | MEC (Enterobacter cloacae) | MEC (Klebsiella pneumoniae [5]) | MEC (Klebsiella pneumoniae [6]) | MEC (Pseudomonas aeruginosa) | MEC (Klebsiella pneumoniae [7]) | MEC (Escherichia coli [8]) | MEC (Escherichia coli [9]) | MEC (Acinetobacter baumannii) | MEC [10] | Ki [12] | Ki [14] | Ki [15] | Ki [16] | Ki [17] | Ki [18] | Ki (BlaVIM-1) | Ki [19] | also measured
1 | COc1ccc2c(c1C(=O)O)OB(O)[C@@H]1C[C@H]21 | 0.3 µg/mL | 0.16 µg/mL | 0.3 µg/mL | 0.3 µg/mL | 0.04 µg/mL | 2.5 µg/mL | 5 µg/mL | 0.08 µg/mL | 0.08 µg/mL | 0.6 µg/mL | 1.25 µg/mL |  |  |  |  |  |  |  |  | MEC (Escherichia coli [2]): 0.08 µg/mL; MEC (Escherichia coli [3]): 0.08 µg/mL; fraction unbound [11]: 0.11
2 | NC(=O)[C@@H]1CC[C@@H]2CN1C(=O)N2OS(=O)(=O)O [AVIBACTAM] |  | < 0.04 µg/mL |  | > 20 µg/mL |  |  |  |  |  |  |  | 11 nM | 40000 to 80000 nM | 0.41 nM | 0.27 nM | 10 nM | 27 nM | > 40000 nM | > 40000 nM | Ki [13]: 27 nM; Activity [20]: < 0.04 µg/mL; Activity (Klebsiella pneumoniae [21]): 1.25 µg/mL; Activity (Klebsiella pneumoniae [22]): > 20 µg/mL
3 | COc1ccc2c(c1C(=O)O)OB(O)CC2 | 0.6 µg/mL | 0.16 µg/mL | 0.3 µg/mL | 0.6 µg/mL | 0.6 µg/mL | 1.25 µg/mL | > 20 µg/mL | 0.6 µg/mL | 0.08 µg/mL | 0.6 µg/mL | 0.6 µg/mL |  |  |  |  |  |  |  |  | bioavailability [23]: 50%; Drug metabolism [24]: Metabolite_Detected; Drug metabolism [25]: Metabolite_Detected
4 | COc1ccc(CCO)c(O)c1C(=O)O |  |  |  |  |  |  |  |  |  |  |  |  |  |  |  |  |  |  |  | Drug uptake [26]: Active; Drug uptake [27]: Active
5 | O=C(O)C[C@@H]1CC[C@H](NC(=O)Cc2cccs2)B(O)O1 [VABORBACTAM] |  |  |  |  |  |  |  |  |  |  |  | 56 nM | > 40000 nM | 33 nM | 21 nM | 35 nM | 14000 nM | > 40000 nM | > 40000 nM | Ki (Beta-lactamase OXA-23): > 40000 nM
